Source: patent US4379917A, “6"-(Substituted)-apramycin antibiotic derivatives and intermediates and starting materials therefor” (Eli Lilly and Company, priority 1981, dated 1983)
Converted amounts (≈) assume the structure as drawn. Where two headings read alike, the source gives them in different places.

Legend:
Escherichia coli EC14 = experiment: MIC by standard agar dilution test; assay type: cell-based; conditions: EC14, read-out: Minimum Inhibitory Concentration
[1] = system: Enterobacter aerogenes EB6; experiment: MIC by standard agar dilution test; assay type: cell-based; conditions: Klebsiella aerogenes, EB6, read-out: Minimum Inhibitory Concentration
Proteus morganii PR1 = experiment: MIC by standard agar dilution test; assay type: cell-based; conditions: Morganella morganii, PR1, read-out: Minimum Inhibitory Concentration
[2] = system: Staphylococcus aureus 3055; experiment: MIC by standard agar dilution test; assay type: cell-based; conditions: Staphylococcus aureus, 3055, read-out: Minimum Inhibitory Concentration
[3] = system: Pseudomonas aeruginosa PI23; experiment: MIC by standard agar dilution test; assay type: cell-based; conditions: PI23, read-out: Minimum Inhibitory Concentration
[4] = system: Pseudomonas aeruginosa 4276; experiment: MIC by standard agar dilution test; assay type: cell-based; conditions: Pseudomonas aeruginosa, 4276, read-out: Minimum Inhibitory Concentration
Salmonella typhimurium = experiment: MIC by standard agar dilution test; assay type: cell-based; conditions: Salmonella enterica, Table II, agar dilution, read-out: Minimum Inhibitory Concentration
Salmonella typhosa SA12 = experiment: MIC by standard agar dilution test; assay type: cell-based; conditions: Salmonella enterica, read-out: Minimum Inhibitory Concentration
[5] = system: Citrobacter freundii CF17; experiment: MIC by standard agar dilution test; assay type: cell-based; conditions: CF17, Table II, agar dilution, read-out: Minimum Inhibitory Concentration
Serratia marcescens SE3 = experiment: MIC by standard agar dilution test; assay type: cell-based
[6] = system: Pseudomonas aeruginosa Ps9; experiment: MIC by standard agar dilution test; assay type: cell-based; conditions: PS9, read-out: Minimum Inhibitory Concentration
Proteus morganii PR15 = experiment: MIC by standard agar dilution test; assay type: cell-based; conditions: Morganella morganii, PR15, read-out: Minimum Inhibitory Concentration
[7] = system: Pseudomonas aeruginosa X239; experiment: MIC by standard agar dilution test; assay type: cell-based; conditions: X239, read-out: Minimum Inhibitory Concentration, Table 1
[8] = system: Enterobacter aerogenes EB17; experiment: MIC by standard agar dilution test; assay type: cell-based; conditions: Klebsiella aerogenes, EB17; Table II; agar dilution; read-out: Minimum Inhibitory Concentration
[9] = system: Staphylococcus aureus 3074; experiment: MIC by standard agar dilution test; assay type: cell-based; conditions: Table II, read-out: Minimum Inhibitory Concentration
Description: (§1) The antibacterial activity of the antibiotic compounds of this invention is illustrated by the following in vitro and in vivo test data obtained with representative compounds. In Tables I and II the minimum inhibitory concentration (MIC) for representative compounds against a wide range of gram-positive and gram-negative bacteria is presented. The MIC values were obtained by the standard agar dilution test.

Erwinia amylovora = experiment: MIC by standard agar dilution test; assay type: cell-based; conditions: Table II, read-out: Minimum Inhibitory Concentration
Description: as §1

[10] = system: Bordetella bronchiseptica 16; experiment: MIC by standard agar dilution test; assay type: cell-based; conditions: Bordetella bronchiseptica, 16, read-out: Minimum Inhibitory Concentration
[11] = system: Streptococcus faecalis X66; experiment: MIC by standard agar dilution test; assay type: cell-based; conditions: Enterococcus faecalis, X66, read-out: Minimum Inhibitory Concentration
Proteus inconstans PV25 = experiment: MIC by standard agar dilution test; assay type: cell-based; conditions: Providencia alcalifaciens, PV25; Table 1; agar dilution; read-out: Minimum Inhibitory Concentration
[12] = system: Pseudomonas aeruginosa X239; experiment: Subcutaneous therapy of Pseudomonas aeruginosa X239 infections in mice; assay type: in vivo; conditions: X239, sc, 2 subcutaneous doses at 1 and 5 hours post infection, dose to protect 50 percent of test animals, read-out: Effective Dose (ED50)
Description: Table III illustrates the effective dose (ED50, effective dose to protect 50 percent of the test animals) for representative compounds of this invention against an experimental bacterial infection in mice. | *mg/kg × 2 subcutaneous doses at 1 and 5 hours post infections The ED50 values were determined as described by W. E. Wick et al., Journal of Bacteriolocy, 81 [No. 2], 233-235 (1961).

Serratia marcescens SE2 = experiment: MIC by standard agar dilution test; assay type: cell-based; conditions: SE2, Table 1, agar dilution, read-out: Minimum Inhibitory Concentration
[13] = system: Pseudomonas solanacearum X185; experiment: microbe, parasite or virus in culture; assay type: cell-based; conditions: Ralstonia solanacearum, X185, read-out: Minimum Inhibitory Concentration
[14] = system: Enterobacter cloacae EB24; experiment: MIC by standard agar dilution test; assay type: cell-based; conditions: EB24, Table 1, agar dilution, read-out: Minimum Inhibitory Concentration
[15] = system: Klebsiella pneumoniae KL2; experiment: MIC by standard agar dilution test; assay type: cell-based; conditions: KL2, Table 1, agar dilution, read-out: Minimum Inhibitory Concentration
[16] = system: Pseudomonas aeruginosa Ps25; experiment: MIC by standard agar dilution test; assay type: cell-based; conditions: PS25, read-out: Minimum Inhibitory Concentration
Proteus morganii PR2 = experiment: MIC by standard agar dilution test; assay type: cell-based; conditions: Morganella morganii, PR2; Table 1; agar dilution; read-out: Minimum Inhibitory Concentration
[17] = system: Klebsiella pneumoniae KL14; experiment: MIC by standard agar dilution test; assay type: cell-based; conditions: KL14, Table II, agar dilution, read-out: Minimum Inhibitory Concentration
[18] = system: Enterobacter cloacae EN453; experiment: MIC by standard agar dilution test; assay type: cell-based; conditions: EN453, Table 1, agar dilution, read-out: Minimum Inhibitory Concentration
[19] = system: Pseudomonas aeruginosa SF-2; experiment: MIC by standard agar dilution test; assay type: cell-based; conditions: SF2, read-out: Minimum Inhibitory Concentration
[20] = system: Pseudomonas aeruginosa Ps15; experiment: MIC by standard agar dilution test; assay type: cell-based; conditions: PS15, read-out: Minimum Inhibitory Concentration
Serratia marcescens X99 = experiment: MIC by standard agar dilution test; assay type: cell-based; conditions: X99, Table 1, agar dilution, read-out: Minimum Inhibitory Concentration
[21] = system: Pseudomonas aeruginosa X528; experiment: MIC by standard agar dilution test; assay type: cell-based; conditions: X528, read-out: Minimum Inhibitory Concentration
[22] = system: Pseudomonas aeruginosa X48; experiment: MIC by standard agar dilution test; assay type: cell-based; conditions: X48, read-out: Minimum Inhibitory Concentration

Q: Which MIC (Escherichia coli EC14) does the source give for `CN[C@@H]1[C@@H](O[C@H]2O[C@H](CN)[C@@H](N)[C@H](O)[C@H]2O)O[C@H]2C[C@@H](N)[C@@H](O[C@H]3[C@H](O)[C@@H](O)[C@H](N)C[C@@H]3N)O[C@@H]2[C@@H]1O` [Test Compound 5, 6"-Amino-6"-Deoxyapramycin] here?
A: 16 µg/mL (≈ 29.7 µM)

Q: What about the MIC [1] of the same molecule?
A: 16 µg/mL (≈ 29.7 µM)

Q: What about the MIC (Proteus morganii PR1) of the same molecule?
A: 16 µg/mL (≈ 29.7 µM)

Q: What about the MIC [2] of the same molecule?
A: 1 µg/mL (≈ 1.86 µM)

Q: And the MIC [3]?
A: > 128 µg/mL

Q: What about the MIC [4] of the same molecule?
A: 64 µg/mL (≈ 119 µM)

Q: And the MIC (Salmonella typhimurium)?
A: 8 µg/mL (≈ 14.9 µM)

Q: And the MIC (Salmonella typhosa SA12)?
A: 16 µg/mL (≈ 29.7 µM)

Q: What about the MIC [5] of the same molecule?
A: 8 µg/mL (≈ 14.9 µM)

Q: What about the MIC (Serratia marcescens SE3; SE3, Table 1, read-out: Minimum Inhibitory Concentration) of the same molecule?
A: 8 µg/mL (≈ 14.9 µM)

Q: What about the MIC (Serratia marcescens SE3; SE3, read-out: Minimum Inhibitory Concentration, Table II) of the same molecule?
A: 16 µg/mL (≈ 29.7 µM)

Q: What about the MIC [6] of the same molecule?
A: 128 µg/mL (≈ 238 µM)

Q: And the MIC (Proteus morganii PR15)?
A: 32 µg/mL (≈ 59.4 µM)

Q: What about the MIC [7] of the same molecule?
A: 32 µg/mL (≈ 59.4 µM)

Q: What about the MIC [8] of the same molecule?
A: 8 µg/mL (≈ 14.9 µM)

Q: And the MIC [9]?
A: 4 µg/mL (≈ 7.43 µM)

Q: And the MIC (Erwinia amylovora)?
A: 4 µg/mL (≈ 7.43 µM)

Q: What about the MIC [10] of the same molecule?
A: 32 µg/mL (≈ 59.4 µM)

Q: What about the MIC [11] of the same molecule?
A: 32 µg/mL (≈ 59.4 µM)

Q: And the MIC (Proteus inconstans PV25)?
A: 8 µg/mL (≈ 14.9 µM)

Q: And the ED50 [12]?
A: 15 mg/kg

Q: What about the MIC (Serratia marcescens SE2) of the same molecule?
A: 8 µg/mL (≈ 14.9 µM)

Q: And the MIC [13]?
A: 4 µg/mL (≈ 7.43 µM)

Q: What about the MIC [14] of the same molecule?
A: 8 µg/mL (≈ 14.9 µM)

Q: And the MIC [15]?
A: 8 µg/mL (≈ 14.9 µM)

Q: And the MIC [16]?
A: 32 µg/mL (≈ 59.4 µM)

Q: And the MIC (Proteus morganii PR2)?
A: 8 µg/mL (≈ 14.9 µM)

Q: And the MIC [17]?
A: 8 µg/mL (≈ 14.9 µM)

Q: What about the MIC [18] of the same molecule?
A: 8 µg/mL (≈ 14.9 µM)

Q: What about the MIC [19] of the same molecule?
A: 32 µg/mL (≈ 59.4 µM)

Q: And the MIC [20]?
A: 32 µg/mL (≈ 59.4 µM)

Q: And the MIC (Serratia marcescens X99)?
A: 8 µg/mL (≈ 14.9 µM)

Q: And the MIC [21]?
A: 64 µg/mL (≈ 119 µM)

Q: What about the MIC [22] of the same molecule?
A: 32 µg/mL (≈ 59.4 µM)
